System: Mice
Test: Standard test for evaluation of inhalation anesthetics (mice in rotating drum; AC50, LC50, anesthetic index)
Format: in vivo
Settings: 10 minutes exposure, calculated from LC50 and AC50
Experimental: Mice were exposed to the anesthetic for a period of 10 minutes in a rotating drum. Observations were then made of the pinch reflex, the corneal reflex and the return of the righting reflex. At least four graded doses were employed to determine the minimum concentration required to anesthetize 50% of the mice used (AC50) and the minimum concentration required to kill 50% of the mice (LC50). The anesthetic index (AI) was then calculated from these minimum concentrations.

SMILES	Anesthetic index AI (LC50/AC50)
FC(F)OC1(F)C(F)(F)C1(F)Br (stereo not drawn) [Example 9, 1-bromo-2-difluoromethoxy-1,2,3,3-tetrafluorocyclopropane]	> 4
FC(F)OC1(F)C(F)(F)C1(F)Cl (stereo not drawn) [Example 7, 1-chloro-2-difluoromethoxy-1,2,3,3-tetrafluorocyclopropane]	> 1
FC(Cl)OC1(F)C(F)(F)C1(F)Cl (stereo not drawn) [Example 8, 1-chloro-2-chlorofluoromethoxy-1,2,3,3-tetrafluorocyclopropane]	4-5
FC(Cl)OC1(F)C(F)(F)C1(F)Br (stereo not drawn) [Example 10, 1-bromo-2-chlorofluoromethoxy-1,2,3,3-tetrafluorocyclopropane]	~ 2

Same assay, conditions: 10 minutes exposure, when two figures are given, the actual parameter lies between them

SMILES	AC50 (minimum concentration required to anesthetize 50% of the mice)	LC50 (minimum concentration required to kill 50% of the mice)
FC(F)OC1(F)C(F)(F)C1(F)Br (stereo not drawn) [Example 9, 1-bromo-2-difluoromethoxy-1,2,3,3-tetrafluorocyclopropane]	1 % volume	> 4 % volume
FC(F)OC1(F)C(F)(F)C1(F)Cl (stereo not drawn) [Example 7, 1-chloro-2-difluoromethoxy-1,2,3,3-tetrafluorocyclopropane]	2-10 % volume	> 10 % volume
FC(Cl)OC1(F)C(F)(F)C1(F)Cl (stereo not drawn) [Example 8, 1-chloro-2-chlorofluoromethoxy-1,2,3,3-tetrafluorocyclopropane]	2 % volume	8-10 % volume
FC(Cl)OC1(F)C(F)(F)C1(F)Br (stereo not drawn) [Example 10, 1-bromo-2-chlorofluoromethoxy-1,2,3,3-tetrafluorocyclopropane]	2-4 % volume	6-8 % volume
